Laboratory results published in patent US20140093550A1 (priority 2012, published 2014).

Legend:
[1] = system: Legionella pneumophila biofilm; type: cell-based, Legionella pneumophila strain Philadelphia 1 (ATCC 33152); details: 7 days; nanoparticles 1 microgram/milliliter, chlorine dioxide 0.1 ppm
[2] = system: Legionella pneumophila biofilm; type: cell-based, Legionella pneumophila strain Philadelphia 1 (ATCC 33152); details: 5 days post-treatment after 7 days of treatment (Example 7 biofilms)

SMILES: [O][Cl+][O-] [chlorine dioxide biocide, chlorine dioxide]
- biomass of biofilm after treatment (Example 7, FIG. 14) [1]: about 0.5 micrometers^3/micrometers^2
- fold increase in biomass on day 12 [2]: ~1.25 fold
